Assays:
[1] = (§1) Pharmacokinetics parameters for Cefotaxine evaluated after single IV or intramuscular (IM) administration of Cefotaxine to normal volunteers.; format: ADME, organism-based; design: dose 1 g, dose 500 mg, dose 2 g, route iv, route im; conditions: human, in vivo, regimen Single dose
Homo sapiens = test: as §1; format: ADME, organism-based; design: dose 1 g, dose 500 mg, dose 2 g, route iv, route im; conditions: in vivo, im, dose 500 mg, dosed compound id 59, dosed compound name CEFOTAXIME, regimen Single dose, tissue Serum
[2] = dose 1 g, dosed compound id 59, dosed compound name CEFOTAXIME, route im, tissue Serum

- half-life ([1]; dose 50 mg/kg, dosed compound id 59, dosed compound name CEFOTAXIME, route iv, study dosing duration 10 to 15 minutes, tissue Urine): 4.6 h
- Tmax [1, 2]: 0.5 h
- half-life [1, 2]: 1 h
- dose excreted ([1]; dosed compound id 590, dosed compound name 14C-CEFOTAXIME, route iv, tissue Urine, read-out: Excretion): 20 to 36%
- Tmax (Homo sapiens): 0.5 h
- t1/2 (Homo sapiens): 1 h
SMILES: CO/N=C(\C(=O)N[C@@H]1C(=O)N2C(C(=O)[O-])=C(COC(C)=O)CS[C@H]12)c1csc(N)n1.[Na+] [CEFOTAXIME SODIUM]
